Data on one compound can be found in paper PMC5923142, “Selection and Characterization of Rupintrivir-Resistant Norwalk Virus Replicon Cells In Vitro” (Antimicrobial Agents and Chemotherapy, 2018).

The test system of test [1] is rupintrivir-resistant Norwalk virus replicon. In words: Susceptibility of rupintrivir-resistant replicon cells, all clones (qRT-PCR). The class given is cell-based, Human norovirus (HuNoV) GI. To be noted: resistant clones vs DMSO-passaged cells. Here is the method:
Given the potent effects of rupintrivir on HGT-NV cells, we sought to determine whether rupintrivir-resistant replicons could be generated. To this end, HGT-NV cells were treated with 5 μM rupintrivir for 12 days in the absence of G418 selection, followed by subsequent passages in the presence of G418 with increasing concentrations of rupintrivir for up to 45 days (Fig. 1D). This approach yielded three lineages of replicon cells which were resistant to 10, 15, and 20 μM rupintrivir. To identify the mutations conferring the resistance to rupintrivir, we isolated cell clones by limiting dilution using replicon cells surviving after 45 days of culture and then evaluated the rupintrivir sensitivity of the replicon cells. […] All clones treated with 10 μM rupintrivir had the I109V single amino acid substitution, while the A105V/I109V double amino acid substitution was observed only in clones treated with 15 and 20 μM rupintrivir. […]
The inhibitory effect of rupintrivir on HuNoV replication was assessed by quantification of the levels of GI NuNoV RNA and β-actin RNA as the reference gene. […] The real-time quantitative reverse transcription-PCR (qRT-PCR) assay was performed by using a One-Step Plus qRT-PCR kit according to the protocol of the manufacturer (Primer Design). […] Relative quantification was performed using the 2^−ΔΔCT threshold cycle (CT) method ([38]). […]
(A replicon is a self-replicating genome or part of one, used to study replication in cells.)

A further test concerns GII protease. In words: Cell-based FRET assay, GII WT protease. Details: species or system norovirus GII.4 (DQ658413). To be noted: compared with GI and GV WT proteases, HEK293T cells. The source says: (§1) The generation of plasmids expressing norovirus protease from GI.1 (M87661), GII.4 (DQ658413), or GV (DQ285629) norovirus and FRET assay constructs has been described previously ([18]). The plasmids carrying GI, GII, and GV proteases with the A105V, I109V, or A105V/I109V mutation were generated from the wild-type (WT) protease constructs described above by the QuikChange site-directed mutagenesis method. Mutant MNV genomes for reverse genetics were generated by two-step PCR mutagenesis of the WT MNV genome (pT7 MNV 3RZ) construct as described previously ([27]). The primers used for generation of the plasmids are listed in Tables S1 and S2 in the supplemental material.
(§2) The YFP/CFP ratio was used to determine FRET efficiency, as described previously ([18], [40]). Briefly, HEK293T cells were plated into black 96-well cell culture microplates (Greiner Bio-One) at a density of 5 × 10^4 cells/well in 100 μl of DMEM containing 10% fetal bovine serum with or without various concentrations of rupintrivir and then incubated for 4 h in a CO2 incubator at 37°C. […] The plates were then analyzed on a SpectraMax i3 instrument in fluorescence mode, with excitation set at 434 nm and the reading emissions set at 477 nm (CFP) and 527 nm (YFP). The background fluorescence from wells transfected with pcDNA3.1 was determined and subtracted. […]

The target in the next test is T1, GV I109V mutant protease (Norovirus, UniProt Q80J95, I1103V).
T1 construct: plasmids expressing norovirus protease from GI.1 (M87661), GII.4 (DQ658413), or GV (DQ285629) norovirus; expressed in transfected cells; host or cells: HEK293T
T1 sequence (Q80J95 995-1177 I1103V): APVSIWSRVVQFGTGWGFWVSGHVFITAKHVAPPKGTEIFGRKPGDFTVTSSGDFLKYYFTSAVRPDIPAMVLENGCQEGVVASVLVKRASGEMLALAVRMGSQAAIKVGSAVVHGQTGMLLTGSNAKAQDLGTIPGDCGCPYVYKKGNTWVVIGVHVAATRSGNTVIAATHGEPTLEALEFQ
The experiment in a line: Cell-based FRET assay, GV I109V protease. The arrangement: species or system murine norovirus (MNV) GV (DQ285629).
From the text: as §1, §2

The subject of a further test is HRV2 N165T. The arrangement: method as in PMID 17908951. To be noted: serial passage of HRV2 for 62 days; cited from earlier work.

One may read the IC50 as the concentration needed to halve the response being measured. A lower IC50 goes with greater potency in that assay.

As to `CCOC(=O)/C=C/[C@H](C[C@@H]1CCNC1=O)NC(=O)[C@@H](CC(=O)[C@@H](NC(=O)c1cc(C)on1)C(C)C)Cc1ccc(F)cc1` [rupintrivir, Rupintrivir], the fold reduced sensitivity in test [1] is recorded as 4- to 11 fold. Further, the “susceptibility of the protease to rupintrivir” value in the test with GII protease is given as “substantially lower”. On GV I109V mutant protease (HEK293T cells, GV NS1/2-NS3 FRET substrate), this compound yielded a concentration for half-maximal inhibition (IC50) of 2700 ± 600 nM. Moreover, the “fold increase in IC50” value on GV I109V mutant protease (vs GV WT protease) stood at 2.7 fold. In the test on HRV2 N165T, the fold reduced susceptibility is on record as 2 fold.
